From patent US8956648B2, “Calciumphosphate-based nanoparticles as carrier-systems for photodynamic therapy” (Biolitec PharmaMarketing Ltd, priority 2008, dated 2015) come the findings set out here.

SMILES strings stand for the structures.

This test deals with human colon adenocarcinoma cell line HT29. Put plainly: Photodynamic cell test on HT29 tumor cell line (XTT viability after laser irradiation). It is filed as cell-based. The note with it: HT29 cells, 24 h incubation, 652 nm diode laser 50 J cm^−2, XTT assay. How it is done: The photosensitizing activity was determined in the human colon adenocarcinoma cell line HT29. The HT29 cell lines were grown in DMEM (cc-pro GmbH) supplemented with 10% heat-inactivated fetal calf serum (FCS, cc-pro GmbH), 1% penicillin (10000 IU) and streptomycin (10,000 μg ml^−1, cc-pro GmbH). Cells were kept as a monolayer culture in a humidified incubator (5% CO2 in air at 37° C.).
A stock solution of the nanoparticle formulation was kept in the dark at 4° C. Further dilution was performed in RPMI 1640 medium without phenol red supplemented with 10% FCS to reach a final photosensitizer concentration of 2 or 10 μM, respectively.
2-10^4 cells ml^−1 were seeded in micro plates ([…]). Cells were incubated with fresh medium (RPMI without phenol red) containing 10% FCS with 2 or 10 μM of the photosensitizer for 24 h before light exposure. Before photosensitization, cells were washed, incubated with RPMI without phenol red and 10% FCS, then irradiated at room temperature with a 652 nm diode laser (Ceralas PDT 652, biolitec AG) at a fixed fluence rate of 100 mW cm^−2 (50 J cm^−2). […]
The cell viability was assessed by the XTT assay. […]
The absorbance of the samples was measured with a spectrophotometer (Tecan Infinite 200, Tecan Group Ltd.) at a wavelength of 490 nm. In order to measure reference absorbance (to measure non-specific readings) a wavelength of 630-690 nm was used. […]

Take `O=P(O)(O)Oc1ccc(-c2c3nc(c(-c4ccc(OP(=O)(O)O)cc4)c4ccc([nH]4)c(-c4ccc(OP(=O)(O)O)cc4)c4nc(c(-c5ccc(OP(=O)(O)O)cc5)c5ccc2[nH]5)C=C4)C=C3)cc1` [pTPPP, 5,10,15,20-tetrakis(4-phosphonooxyphenyl)porphine]: the photodynamic activity result is listed as “no photodynamic activity”.
